# Measured values taken from patent US6815456B2, “Heterocyclyloxy-, -thioxy- and -aminobenzazole derivatives as 5-hydroxytryptamine-6 ligands” (Wyeth, priority 2001, dated 2004).
# Counter-ions that a name gives are not always drawn.
# Molecular target: T1, human cloned 5-HT6 receptors (Homo sapiens, UniProt P50406)
# T1 construct: expressed in transfected cells; host or cells: HeLa cells
# Assay: 5-HT6 binding affinity, [3H]-LSD displacement on membranes of Hela cells expressing human cloned 5-HT6 receptors
# Settings: [3H]-LSD 3.0 nM, Hela cell membranes, 120 min at room temperature
# Protocol: The affinity of test compounds for the serotonin 5-HT6 receptor is evaluated in the following manner. Cultured Hela cells expressing human cloned 5-HT6 receptors are harvested and centrifuged at low speed (1,000×g) for 10.0 min to remove the culture media. The harvested cells are suspended in half volume of fresh physiological phosphate buffered saline solution and recentrifuged at the same speed. This operation is repeated. The collected cells are then homogenized in ten volumes of 50 mM Tris.HCl (pH 7.4) and 0.5 mM EDTA. The homogenate is centrifuged at 40,000×g for 30.0 min and the precipitate is collected. The obtained pellet is resuspended in 10 volumes of Tris.HCl buffer and recentrifuged at the same speed. The final pellet is suspended in a small volume of Tris.HCl buffer and the tissue protein content is determined in aliquots of 10-25 μl volumes. Bovine Serum Albumin is used as the standard in the protein determination according to the method described in Lowry et al., J. Biol. Chem., 193:265 (1951). The volume of the suspended cell membranes is adjusted to give a tissue protein concentration of 1.0 mg/ml of suspension. The prepared membrane suspension (10 times concentrated) is aliquoted in 1.0 ml volumes and stored at −70° C. until used in subsequent binding experiments.
# Binding experiments are performed in a 96 well microtiter plate format, in a total volume of 200 μl. […] The test compounds are added in 20.0 μl volume.
# The reaction is allowed to proceed in the dark for 120 min at room temperature, at which time, the bound ligand-receptor complex is filtered off on a 96 well unifilter with a Packard Filtermate® 196 Harvester. The bound complex caught on the filter disk is allowed to air dry and the radioactivity is measured in a Packard TopCount® equipped with six photomultiplier detectors, after the addition of 40.0 μl Microscint®-20 scintillant to each shallow well. The unifilter plate is heat-sealed and counted in a PackardTopCount® with a tritium efficiency of 31.0%.
# Binding in the presence of varying concentrations of test compound is expressed as a percentage of specific binding in the absence of test compound. The results are plotted as log % bound versus log concentration of test compound. […] A linear regression line of data points is plotted, from which the IC50 value is determined and the Ki value is determined based upon the following equation: […]
# where L is the concentration of the radioactive ligand used and KD is the dissociation constant of the ligand for the receptor, both expressed in nM.
# T1 sequence (P50406 whole entry): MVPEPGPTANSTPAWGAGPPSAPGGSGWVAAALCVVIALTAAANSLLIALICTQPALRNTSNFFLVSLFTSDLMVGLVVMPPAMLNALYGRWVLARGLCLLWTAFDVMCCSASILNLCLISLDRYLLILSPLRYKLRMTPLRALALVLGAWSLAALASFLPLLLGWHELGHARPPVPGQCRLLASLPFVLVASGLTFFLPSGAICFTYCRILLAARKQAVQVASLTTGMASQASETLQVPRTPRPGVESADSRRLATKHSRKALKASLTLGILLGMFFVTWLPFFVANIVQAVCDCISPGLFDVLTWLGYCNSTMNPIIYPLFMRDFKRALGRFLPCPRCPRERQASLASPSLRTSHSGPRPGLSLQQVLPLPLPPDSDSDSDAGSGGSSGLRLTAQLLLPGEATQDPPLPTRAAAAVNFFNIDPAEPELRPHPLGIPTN
row,Ki,SMILES
1,25 nM,"O=S(=O)(c1ccccc1F)n1ncc2c(OC3CCNC3)cccc21 (stereo not shown) [Example 17, 1-[(2-fluorophenyl)sulfonyl]-4-(3-pyrrolidinyloxy)-1H-indazole]"
2,13 nM,"O=S(=O)(c1cccc2ccccc12)n1ccc2c(OC3CCNC3)cccc21 (stereo not shown) [Example 6, 1-(1-naphthylsulfonyl)-4-(3-pyrrolidinyloxy)-1H-indole]"
3,22 nM,"O=S(=O)(c1cccc2cccnc12)n1ncc2c(OC3CCNC3)cccc21 (stereo not shown) [Example 22, 8-{[4-(3-pyrrolidinyloxy)-1H-indazol-1-yl]sulfonyl}quinoline]"
4,8 nM,"O=S(=O)(c1ccccc1)n1ccc2c(OC3CCNC3)cccc21 (stereo not shown) [Example 3, 1-(Phenylsulfonyl)-4-(3-pyrrolidinyloxy)-1H-indole Hydrochloride]"
5,5 nM,"Nc1ccc(S(=O)(=O)n2ccc3c(OC4CCNC4)cccc32)cc1 (stereo not shown) [Example 5, 4-{[4-(3-pyrrolidinyloxy)-1H-indol-1-yl]sulfonyl}aniline]"
6,12 nM,"CC(=O)Nc1ccc(S(=O)(=O)n2ncc3c(OC4CCNC4)cccc32)cc1Cl (stereo not shown) [Example 20, N-(2-Chloro-4-{[4-(3-pyrrolidinyloxy)-1H-indazol-1-yl]sulfonyl}phenyl)acetamide]"

# The remaining lines, values behind:
row,SMILES,Ki
1,COc1ccc(S(=O)(=O)n2ncc3c(OC4CCNC4)cccc32)cc1OC (stereo not shown) [Example 18],75 nM
2,"O=S(=O)(c1cccc2ccccc12)n1ncc2c(OC3CCNC3)cccc21 (stereo not shown) [Example 15, 1-(1-naphthylsulfonyl)-4-(3-pyrrolidinyloxy)-1H-indazole]",3 nM
3,"Nc1ccc(S(=O)(=O)n2ccc3c(OC4CCCNC4)cccc32)cc1 (stereo not shown) [Example 9, 4-{[4-(piperidin-3-yloxy)-1H-indol-1-yl]sulfonyl}aniline]",11 nM
4,"O=S(=O)(c1ccccc1Cl)n1ncc2c(OC3CCNC3)cccc21 (stereo not shown) [Example 16, 1-[(2-Chlorophenyl)sulfonyl]-4-(3-pyrrolidinyloxy)-1H-indazole]",19 nM
5,"Nc1ccc(S(=O)(=O)n2ccc3c(OC4CCNCC4)cccc32)cc1 [Example 8, 4-{[4-(piperidin-4-yloxy)-1H-indol-1-yl]sulfonyl}aniline]",3 nM
6,CC(=O)Nc1ccc(S(=O)(=O)n2ncc3c(OC4CCNC4)cccc32)cc1 (stereo not shown) [Example 21],124 nM
7,"O=S(=O)(c1cccs1)n1ccc2c(OC3CCNC3)cccc21 (stereo not shown) [Example 4, 4-(3-pyrrolidinyloxy)1-(thien-2-ylsulfonyl)-1H-indole]",25 nM
8,"O=S(=O)(c1ccccc1)n1ncc2c(OC3CCNC3)cccc21 (stereo not shown) [Example 14, 1-(Phenylsulfonyl)-4-(pyrrolidin-3-yloxy)-1H-indazole, trifluoroacetic acid salt]",19 nM
9,"O=S(=O)(c1ccc(Cl)s1)n1ncc2c(OC3CCNC3)cccc21 (stereo not shown) [Example 19, 1-[(5-Chlorothien-2-yl)sulfonyl]-4-(3-pyrrolidinyloxy)-1H-indazole]",9 nM

# System: not given
# Assay: not given
# Settings: not given
row,melting point,SMILES
1,161 to 163 °C,"O=S(=O)(c1ccccc1Cl)n1ncc2c(OC3CCNC3)cccc21 (stereo not shown) (as salt: trifluoroacetic acid salt) [Example 16, 1-[(2-Chlorophenyl)sulfonyl]-4-(3-pyrrolidinyloxy)-1H-indazole]"
2,79 °C,"O=S(=O)(c1cccc2cccnc12)n1ncc2c(OC3CCNC3)cccc21 (stereo not shown) (as salt: trifluoroacetic acid salt) [Example 22, 8-{[4-(3-pyrrolidinyloxy)-1H-indazol-1-yl]sulfonyl}quinoline]"
3,102 to 103 °C,"O=S(=O)(c1ccc(Cl)s1)n1ncc2c(OC3CCNC3)cccc21 (stereo not shown) (as salt: trifluoroacetic acid salt) [Example 19, 1-[(5-Chlorothien-2-yl)sulfonyl]-4-(3-pyrrolidinyloxy)-1H-indazole]"

# Further lines, the compound ahead of its results:
row,SMILES,melting point
1,"O=S(=O)(c1cccc2ccccc12)n1ncc2c(OC3CCNC3)cccc21 (stereo not shown) (as salt: trifluoroacetic acid salt) [Example 15, 1-(1-naphthylsulfonyl)-4-(3-pyrrolidinyloxy)-1H-indazole]",200 to 201 °C
2,"O=S(=O)(c1cccc2ccccc12)n1ccc2c(OC3CCNC3)cccc21 (stereo not shown) (as salt: hydrochloride) [Example 6, 1-(1-naphthylsulfonyl)-4-(3-pyrrolidinyloxy)-1H-indole]",179 °C (dec.)
3,"Cc1nn(C)c(Cl)c1S(=O)(=O)n1ccc2c(OC3CCNC3)cccc21 (stereo not shown) (as salt: hydrochloride) [Example 7, 1-[(5-Chloro-1,3-dimethyl-1H-pyrazol-4-yl)sulfonyl]-4-(3-pyrrolidinyloxy)-1H-indole]",100 °C (dec.)
4,"CC(=O)Nc1ccc(S(=O)(=O)n2ncc3c(OC4CCNC4)cccc32)cc1Cl (stereo not shown) (as salt: trifluoroacetic acid salt) [Example 20, N-(2-Chloro-4-{[4-(3-pyrrolidinyloxy)-1H-indazol-1-yl]sulfonyl}phenyl)acetamide]",68 to 72 °C
5,"O=S(=O)(c1ccccc1F)n1ncc2c(OC3CCNC3)cccc21 (stereo not shown) (as salt: trifluoroacetic acid salt) [Example 17, 1-[(2-fluorophenyl)sulfonyl]-4-(3-pyrrolidinyloxy)-1H-indazole]",162 to 163 °C
6,"Nc1ccc(S(=O)(=O)n2ccc3c(OC4CCNCC4)cccc32)cc1 (as salt: hydrochloride) [Example 8, 4-{[4-(piperidin-4-yloxy)-1H-indol-1-yl]sulfonyl}aniline]",117 to 119 °C
7,"Nc1ccc(S(=O)(=O)n2ccc3c(OC4CCCNC4)cccc32)cc1 (stereo not shown) (as salt: hydrochloride) [Example 9, 4-{[4-(piperidin-3-yloxy)-1H-indol-1-yl]sulfonyl}aniline]",160 °C (dec.)
